# Data as given in patent publication US8350079B2, “Treprostinil formulation” (United Therapeutics Corporation, priority 2008, dated 2013).
# Test: Extended room temperature storage of treprostinil monohydrate lot D-1007-089 (18-month stability summary: water content, assay/impurity profile)
# Assay type: physicochemical
# Conditions: for TREPROSTINIL Assay: in % (unit assumed)
# Protocol: 2. UT Stability Summary (18-month) for monohydrate lot # D-1007-089
# A 3.4-kg sample of treprostinil diethanolamine salt was dissolved in 36 L of sterile water, 60 L of ethyl acetate and 3.6 L of 3 M HCl were added and the mixture stirred. The layers were separated and the aqueous layer was extracted thrice with 20-L portions of ethyl acetate. The four organic layers were combined, the organic solution washed twice with 20-L portions of sterile water, once with 20 L of brine and dried over 2.86 kg of anhydrous sodium sulfate. The mixture was filtered and the filtrate was concentrated to yield treprostinil as a gummy solid. This solid was transferred to glass drying trays and let air-dry for 66 hours. This solid was then dissolved in 23.8 kg of ethanol, warmed to 48° C. and treated with 23.8 kg of warm (40-50° C.) sterile water. The solution was stirred and then stirring was stopped to allow the treprostinil to slowly crystallize. The resulting white solid was collected by filtration in an Aurora filter, washed with 45 L of a cold (6° C.) 20% ethanol in sterile water solution, the filter moved to a Hepa-filtered Finishing Room and the solid dried under house vacuum for 23 hours. The solid was transferred to glass drying trays and further air-dried for 115 hours until the total weight of the material was constant (no further solvent loss). A sample of this treprostinil monohydrate was taken as Lot #D-1007-089 for stability studies. The remaining material was further dried in a vacuum oven at 55° C. and 1.66 Torr for 10 hours to give 2.68 kg (96.4%) of anhydrous treprostinil (Lot #01G07018).
# One of the stability studies has followed the monohydrate of TREPROSTINIL stored in an open container.
# [1] = 1 Month, Container 1 (closed), room temperature
# [2] = 1 Month, Container 2 (covered with Kimwipe), room temperature
# [3] = 2 Months, Container 1 (closed), room temperature
# [4] = 2 Months, Container 2 (covered with Kimwipe), room temperature
# [5] = 3 Months, Container 1 (closed), room temperature
# [6] = 3 Months, Container 2 (covered with Kimwipe), room temperature
# [7] = 6 Months, Container 1 (closed), room temperature
# [8] = 6 Months, Container 2 (covered with Kimwipe), room temperature
# [9] = 12 Months, Container 1 (closed), room temperature
# [10] = 12 Months, Container 2 (covered with Kimwipe), room temperature
# [11] = 18 Month, Container 1 (closed), room temperature
# [12] = 18 Month, Container 2 (covered with Kimwipe), room temperature
# [13] = Initial, Container 1 (closed), room temperature
# [14] = Initial, Container 2 (covered with Kimwipe), room temperature
compound,measurement,setting,value
"CCCCC[C@H](O)CC[C@@H]1[C@H]2Cc3cccc(OCC(=O)O)c3C[C@H]2C[C@H]1O [TREPROSTINIL Lot# D-1007-089, treprostinil monohydrate]",750W93,[1],0.09%
same,751W93,[1],0.04%
same,Impurity 1,[1],0.05
same,Impurity 2,[1],0.05
same,TREPROSTINIL Ethyl Ester,[1],0.2%
same,Total impurities,[1],0.5%
same,TREPROSTINIL Assay,[1],100.1
same,750W93,[2],0.09%
same,751W93,[2],0.04%
same,Impurity 1,[2],0.05
same,Impurity 2,[2],0.05
same,TREPROSTINIL Ethyl Ester,[2],0.2%
same,Total impurities,[2],0.5%
same,TREPROSTINIL Assay,[2],100.4
same,750W93,[3],0.09%
same,751W93,[3],0.04%
same,Impurity 1,[3],0.05
same,Impurity 2,[3],0.05
same,TREPROSTINIL Ethyl Ester,[3],0.2%
same,Total impurities,[3],0.5%
same,"Water, KF",[3],4.46%
same,TREPROSTINIL Assay,[3],99.5
same,750W93,[4],0.09%
same,751W93,[4],0.04%
same,Impurity 1,[4],0.05
same,Impurity 2,[4],0.05
same,TREPROSTINIL Ethyl Ester,[4],0.2%
same,Total impurities,[4],0.5%
same,"Water, KF",[4],4.47%
same,TREPROSTINIL Assay,[4],99.6
same,750W93,[5],0.09%
same,751W93,[5],0.04%
same,Impurity 1,[5],0.06
same,Impurity 2,[5],<0.05
same,TREPROSTINIL Ethyl Ester,[5],0.2%
same,Total impurities,[5],0.5%
same,"Water, KF",[5],4.51%
same,TREPROSTINIL Assay,[5],98.1
same,750W93,[6],0.09%
same,751W93,[6],0.04%
same,Impurity 1,[6],0.06
same,Impurity 2,[6],<0.05
same,TREPROSTINIL Ethyl Ester,[6],0.2%
same,Total impurities,[6],0.5%
same,"Water, KF",[6],4.48%
same,TREPROSTINIL Assay,[6],98.6
same,750W93,[7],0.1%
same,751W93,[7],0.04%
same,Impurity 1,[7],<0.05
same,Impurity 2,[7],<0.05
same,TREPROSTINIL Ethyl Ester,[7],0.2%
same,Total impurities,[7],0.6%
same,"Water, KF",[7],4.59%
same,TREPROSTINIL Assay,[7],99.4
same,750W93,[8],0.09%
same,751W93,[8],0.04%
same,Impurity 1,[8],<0.05
same,Impurity 2,[8],<0.05
same,TREPROSTINIL Ethyl Ester,[8],0.2%
same,Total impurities,[8],0.6%
same,"Water, KF",[8],4.72%
same,TREPROSTINIL Assay,[8],99.3
same,750W93,[9],0.09%
same,751W93,[9],< 0.05%
same,Impurity 1,[9],0.06
same,Impurity 2,[9],0.05
same,TREPROSTINIL Ethyl Ester,[9],0.2%
same,Total impurities,[9],0.5%
same,"Water, KF",[9],4.72%
same,TREPROSTINIL Assay,[9],100.1
same,750W93,[10],0.09%
same,751W93,[10],< 0.05%
same,Impurity 1,[10],0.06
same,Impurity 2,[10],0.05
same,TREPROSTINIL Ethyl Ester,[10],0.2%
same,Total impurities,[10],0.05%
same,"Water, KF",[10],4.73%
same,TREPROSTINIL Assay,[10],100.3
same,750W93,[11],0.09%
same,751W93,[11],< 0.05%
same,Impurity 1,[11],<0.05
same,Impurity 2,[11],0.05
same,TREPROSTINIL Ethyl Ester,[11],0.2%
same,Total impurities,[11],0.05%
same,"Water, KF",[11],4.67%
same,TREPROSTINIL Assay,[11],100.3
same,750W93,[12],0.09%
same,751W93,[12],< 0.05%
same,Impurity 1,[12],<0.05
same,Impurity 2,[12],0.05
same,TREPROSTINIL Ethyl Ester,[12],0.2%
same,Total impurities,[12],0.05%
same,"Water, KF",[12],4.72%
same,TREPROSTINIL Assay,[12],99.8
same,750W93,[13],0.1%
same,751W93,[13],0.04%
same,Impurity 1,[13],0.06
same,Impurity 2,[13],0.05
same,TREPROSTINIL Ethyl Ester,[13],0.2%
same,Total impurities,[13],0.5%
same,"Water, KF",[13],4.55%
same,TREPROSTINIL Assay,[13],99.6
same,750W93,[14],0.1%
same,751W93,[14],0.04%
same,Impurity 1,[14],0.05
same,Impurity 2,[14],<0.05
same,TREPROSTINIL Ethyl Ester,[14],0.2%
same,Total impurities,[14],0.5%
same,"Water, KF",[14],4.37%
same,TREPROSTINIL Assay,[14],99.5
same,Retention of the one mole of water in the solid,"open container, over 18-months",has not disappeared
same,Stability compared with the anhydrous form,"room temperature, e.g. 25° C. / ambient temperatures",more stable than the anhydrous form
